The NIST ThermoML archive (doi:10.1016/j.fluid.2007.07.070)
Numbers after ± are expanded uncertainties.

Settings: Crystal; DTA

Normal melting temperature: 260.6 ± 0.5 °C
Structure (SMILES): O=C1c2ccccc2C(=O)C1c1nc2ccccc2cc1O [1H-indene-1,3(2H)-dione, 2-(3-hydroxy-2-quinolinyl)-]
